“Also recorded” adds a separate entry of the source.
Experiments:
Pin1 PPIase = Pin1 PPIase (Homo sapiens, UniProt Q13526); conditions: Uchida et al. 2003; cited from earlier work
[1] = tested on: other prolyl isomerases such as CypA or FKBP; conditions: cited from earlier work
HIV-1 [2] = assay: Single-round infectivity on TZM-bl cells of HIV-1 produced in Pin1-inhibited 293T cells (Galacton-Star galactosidase assay); type: cell-based
Text: Viral inocula from transfections above were normalized to equal virion particle number via p24 ELISA and used to infect target CD4^+ HeLa cells (1×10^5 TZM-bl). Infectivity was scored using the Galacton-Star enzymatic galactosidase activity assay, and infectivity quantified by relative […] units (R.F.U).
(§1) Plasmids: Laboratory-adapted provirus NL4.3, and the CypA-independent NL4.3 CAi2 were kindly provided by Akio Adachi (Department of Virology, Institute of Health Biosciences, The University of Tokushima Graduate School, JAPAN). Mutant R9G89V was a gift from P. Gallay (TSR1) as were NL4.3-GFP and SIV-GFP (originally Dana Gabuzda, Dana Farber Cancer Institute). NL4.3 A92E was kindly provided by W. Phares (Genetics Unit, Novartis Forschungsinstitut, Vienna, Austria). R9Δgp160 plasmid clone was kindly provided by C. Aiken (Vanderbilt Medical Center). VSV-G (CMV-VSV-G) was kindly provided by D. Trono (École Polytechnique Fédérale de Lausanne). Both bMLV-GFP and nMLV-GFP in the form of pCIG3-N, pCIG3-B as well as pCNCG were kindly provided by J. Stoye (National Institute for Medical Research, UK). Isomerase mutant Pin1 (pFLAG-Pin1R68,69A) and WW-domain mutant Pin1 (pFLAG-Pin1 W34A) were constructed by site-directed mutagenesis. Pseudotyping experiments were performed using DNA constructs encoding the VSV-G generously provided by D. Trono. Human Pin1 was cloned into pFLAG (Sigma-Aldrich) making pFLAG-Pin1. Viruses were produced by transfection of 293T cells using either GeneJuice (Novagen) or calcium phosphate. […] All viruses were harvested 24-48 hours post-transfection and filtered (0.2-μM filter, Steriflip Millipore). HIV-1 viruses were normalized by p24 ELISA (Alliance HIV-1 p24 Antigen ELISA Kit, Perkin Elmer), and/or were normalized via the EnzChek® Reverse Transcriptase Assay Kit (E-22064) (Molecular Probes).
Infection assays for retrovirus: Single-round infections: CD4^+ TZM-bl 100,000 cells/well/mL were seeded onto 24-well plates 24 hours prior to infection. These cells were infected in quadruplicate to 24-well plates. Infectivity was scored using an enzymatic galactosidase activity assay. Specifically, infected TZM-bl cells were washed and lysed, and 20 μl of lysate was transferred to a 96-well plate for detecting β-galactosidase activity. 100 μl of reaction buffer Galacton-Star substrate (Applied Biosystems, Bedford, Mass.), diluted 1:50, was added to 20 μl of lysate, and the light emission was measured over 1 second in a microplate luminometer after 30 minutes incubation. For human PBMC infections, cells were exposed to 10 ng of wild-type virus for 6 hours, washed, and split into two flasks: one with 10 μM PiB added on day 0 and 3, and one without PiB. Replication was monitored by p24 ELISA. For measuring infectivity of GFP-virus, 50,000 TZMb1, sMAGI, OMK, Vero, BSC-1 and CV-1 cells/well/mL were seeded onto 6-well plates respectively 24 hours prior to infection. Viruses were used to infect in duplicate wells, incubated for 48 hours, washed with PBS, trypsinized, fixed in 1% formaldehyde and subsequently analyzed by fluorescence-activated cell sorting (FACS) for percentage cells infected.
To examine a potential role for Pin1 in HIV-1 replication we used two inhibitors of Pin1: juglone and PiB. […] 293T cells were transfected with a proviral construct encoding wild-type HIV-1 in the presence or absence of PiB or juglone.

HIV-1 [3] = assay: HIV-1 viral production in 293T producer cells, p24 ELISA of supernatants; type: cell-based; conditions: 293T cells transfected with NL4.3; 2.0 μM juglone, 2.0 μM or 10.0 μM PiB
Text: as §1, with “HIV-1 viruses were normalized by p24 ELISA (Alliance HIV-1 p24 Antigen ELISA Kit, Perkin Elmer), and/or were normalized via the EnzChek® Reverse Transcriptase Assay Kit (E-22064) (Molecular Probes).” left out

E. coli PPIase, parvulin = E. coli PPIase, parvulin (Escherichia coli, UniProt P0A9L5); conditions: covalent modification of two cysteine residues, slow process; cited from earlier work
E. coli PPIase, parvulin, sequence (P0A9L5 whole entry): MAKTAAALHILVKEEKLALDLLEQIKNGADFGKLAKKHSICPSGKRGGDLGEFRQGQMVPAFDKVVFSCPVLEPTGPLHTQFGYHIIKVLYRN

HCV = HCV infectivity titer of supernatants from persistently infected HUH-7 cells; type: cell-based; conditions: PiB 16 μM and 8 μM, 1 hour pre-treatment plus 9 hours at 37° C.
Experimental: (§2) Cells persistently infected with HCV were treated with vehicle (DMSO), an MTP inhibitor (BMS-200150) capable of inhibiting HCV secretion, or with two doses of PiB (16 μM and 8 μM). After 1 hour of pre-treatment at 37° C., cells were washed with warm PBS and further incubated in normal medium containing the same drugs for an additional 9 hours at 37° C. Cell supernatants containing infectious HCV were collected for infectivity titer determination.
as §2, with “Infection assays for HCV: Persistently” for “Cells persistently”, “cells” for “with HCV”, “inhibitors” for “drugs”, “determination. […] Note that Pin1 is able to block HIV-1 in the HUH-7 cell line used to propagate HCV.” for “determination.”
Persistently infected HUH-7 cells were treated with solvent DMSO (circles), or increasing concentrations of PiB (squares). After 1 hour of pre-treatment cells were washed and further incubated in normal medium containing the same inhibitors for an additional 9 hours at 37° C. Cell supernatants containing infectious HCV were collected for infectivity titer determination.

Pin1 PPIase, sequence (Q13526 whole entry): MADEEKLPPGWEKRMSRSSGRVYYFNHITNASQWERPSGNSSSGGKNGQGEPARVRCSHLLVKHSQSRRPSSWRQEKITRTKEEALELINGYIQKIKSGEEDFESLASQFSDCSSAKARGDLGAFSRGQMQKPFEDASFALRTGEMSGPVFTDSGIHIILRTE

## CCOC(=O)CN1C(=O)c2ccc3c4ccc5c6c(ccc(c7ccc(c2c37)C1=O)c64)C(=O)N(CC(=O)OCC)C5=O [PiJ, diethyl-1,3,8,10-tetrahydro-1,3,8,10-tetraoxoanthra[2,1,9-def:6,5,10-d′e′f′]diisoquinoline-2,9-diacetate]
Pin1 PPIase
  inhibition of the PPIase activity of Pin1: potently inhibit

## CN1C(=O)c2ccc3c4c(ccc(c24)C1=O)C(=O)N(C)C3=O [PiA, 2,7-dimethylbenzo[lmn][3,8]phenanthroline-1,3,6,8 (2H,7H)-tetrone]
Pin1 PPIase
  inhibition of the PPIase activity of Pin1: potently inhibit

## O=C1C=CC(=O)c2c(O)cccc21 [juglone, 5-hydroxy-1,4-naphthoquinone]
[1]
  inhibition of other PPIase families (CypA, FKBP): do not inhibit; also recorded: not affected
HIV-1 [2]
  boost of infectivity: 2 fold
HIV-1 [3]
  viral production (HIV-1 capsid in viral supernatants by p24 ELISA): Neither inhibitor influences viral production; also recorded: do not alter viral production
E. coli PPIase, parvulin
  inactivation of E. coli parvulin: inactivates

## O=C1c2ccccc2CN1C1CCN(CCC(c2ccccc2)c2ccccc2)CC1 [BMS-200150]
HCV
  infectious HCV in cell supernatants (infectivity titer): virtual absence of particles
